From US20220275534A1, “Peptide Library Production Method” (The University of Tokyo, priority 2018, published 2022)
Positions of bridges follow the written chain, without caps; N, C: chain ends. Non-standard residues stand in square brackets, D forms with d. No end group written: not given here.

Columns and labels:
OltF = assay: Prenylation of Trp present at N terminal with OltF (Example 23); type: biochemical, Planktothrix; details: 100 μM OltF, 2.1 mM DMAPP, 37° C., 18 hours (FIG. 19, FIG. 20)
Sequence of OltF (as listed by the source): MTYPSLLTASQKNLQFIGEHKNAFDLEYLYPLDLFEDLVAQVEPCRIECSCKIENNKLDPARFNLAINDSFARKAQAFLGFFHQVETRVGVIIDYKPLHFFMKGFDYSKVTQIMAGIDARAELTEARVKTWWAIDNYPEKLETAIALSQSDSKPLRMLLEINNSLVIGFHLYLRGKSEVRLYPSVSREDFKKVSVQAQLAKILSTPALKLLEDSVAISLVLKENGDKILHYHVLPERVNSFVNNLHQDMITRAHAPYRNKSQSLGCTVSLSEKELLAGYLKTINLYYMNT
Protocol: The cyclic peptide shown below was obtained by translation and synthesis under the following (Conditions 32) in the artificial translation system developed by the present inventors. The translated mixture thus obtained was then reacted (prenylated) under the following (Conditions 33).
(Conditions 32) • 19aa-mix (19 kinds of proteinogenic amino acids other than M)]: 0.5 mM • ClAc-D-Tyr-tRNA^fMetCUA: 50 μM • Reaction: 37° C. and 30 minutes in an artificial translation-system solution. • Scale: 2.5 μL scale
(Conditions 33) • Translated mixture amount: 2.5 μL (mixture obtained under (Conditions 32)) • OltF: 100 μM • DMAPP: 2.1 mM • Reaction: 37° C., 18 hours • Scale: 5.7 μL scale

[1] = test system: KgpF immobilized onto magnetic beads; assay: Modification of artificial cyclic peptides with KgpF immobilized onto magnetic beads, solid phase (Example 18; Table 17); type: biochemical, Microcystis aeruginosa; set-up: key: 5: strong intensity; 4: medium intensity; 3: weak intensity; 2: very weak intensity; 1: no peak; N/A: not observed; details: KgpF Solid phase (magnetic beads) 72 μM, 4° C., 14 hours
Sequence of KgpF immobilized onto magnetic beads (as listed by the source): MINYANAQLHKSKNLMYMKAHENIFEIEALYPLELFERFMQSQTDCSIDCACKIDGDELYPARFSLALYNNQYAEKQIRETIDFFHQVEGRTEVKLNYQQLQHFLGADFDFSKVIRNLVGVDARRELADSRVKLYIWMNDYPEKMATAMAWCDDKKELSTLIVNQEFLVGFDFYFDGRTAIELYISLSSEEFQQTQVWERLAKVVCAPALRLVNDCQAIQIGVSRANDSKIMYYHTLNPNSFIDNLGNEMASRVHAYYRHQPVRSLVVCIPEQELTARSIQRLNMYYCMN
Excerpt: Dynabeads His-Tag Isolation and Pulldown (Invitrogen) was brought into contact with KgpF having a His-tag added N terminal and the KgpF was immobilized onto the magnetic beads. […] When it exceeded a predetermined amount, immobilization reached saturation.
(§1) The artificial cyclic peptides shown in Table were synthesized under (Conditions 25) and were brought into contact with KgpF in solid phase under (Conditions 26). In addition, the same peptides were reacted in liquid phase under conditions shown in (Conditions 13) and (Conditions 14) except that the prenylation reaction time was changed to 14 hours.
(Conditions 25) • FIT system: v8s/v11.1 • 19aa-Met: 0.5 mM • ClAc-D-Tyr-tRNA^fMetCUA: 90 μM • Reaction: 37° C., 60 min. • Scale: 2.5 μL scale
(§2) After the above reaction was performed, the reaction product was incubated at 25° C. for 12 minutes.
(§3) Then, a cyclization reaction was performed under the following conditions. • Translated mixture amount: 2.5 μL (mixture obtained by the above reaction) • EDTA: 18 mM • Reaction: 42° C., 60 min. • Scale: 2.75 μL scale
(Conditions 26) • Translated mixture amount: 2.75 μL (mixture obtained under (Conditions 25)) • KOH: 6.0 mM • Mg(OAc)2: 9.0 mM • Tris-HCl (pH 8.3) 15 mM • KgpF immobilized onto magnetic beads: 72 μM • DMAPP: 2 mM • Reaction: 4° C., 14 hours, rotation mixing

KgpF [2] = assay: Modification of the same peptides with KgpF in liquid phase, Conditions 13/14 with 14 hours (Example 18; Table 17); type: biochemical, Microcystis aeruginosa; set-up: key: 5: strong intensity; 4: medium intensity; 3: weak intensity; 2: very weak intensity; 1: no peak; N/A: not observed; details: KgpF Liquid phase 160 μM
Protocol: (Conditions 13) • FIT system: v8s/v11.0 • 19aa-Met: 0.5 mM • ClAc-D-Tyr-tRNA^fMetCUA: 90 μM • Reaction: 37° C., 60 min. • Scale: 2.5 μL scale
as §2, §3
(Conditions 14) • Translated mixture amount: 2.75 μL (mixture obtained under (Conditions 13)) • KOH: 6.0 mM • Mg(OAc)2: 9.0 mM • Tris-HCl (pH 8.3) 15 mM • KgpF: 160 μM • DMAPP: 2 mM • Reaction: 0° C., 20 hours
as §1

MetAP1 = MetAP1 (Homo sapiens, UniProt P53582); assay: MetAP1 inhibition test of prenylated cyclic peptide (probe fluorescence); type: biochemical; details: prenylated peptide at 1 μM, 5 μM or 10 μM; cofactor Mn2+ or Co2+ 100 μM; MetAP1 1 μM; 37° C., 120 min (FIG. 13)
Protocol: A MetAP1 inhibition test was performed in vitro using the prenylated Met2, Met3a-L, and Met3-1 at concentrations of 1 μM, 5 μM or 10 μM in the presence of a MetAP1 cofactor Mn^2+ or Co^2+. In the test, enzymatic activity was measured by detecting probe fluorescence, that is, fluorescence emitted depending on the enzymatic activity of MetAP1.
(Conditions) • Scale: 20 μL • Cyclic peptide: 1, 5, 10 μM • MnCl2 or CoCl2: 100 μM • MetAP1 enzymatic activity probe: 1 μM • MetAP1: 1 μM • Tris (pH7.6): 25 mM • NaCl: 75 mM • Reaction: 37° C., 120 min.
After the reaction, the fluorescence intensity of the probe was measured using a plate reader.

KgpF [3] = assay: Prenylation of translated thioether-closed artificial cyclic peptides with KgpF, MALDI-TOF-MS analysis (Examples 1-9; 37° C., 18 hours); type: biochemical, Microcystis aeruginosa; details: Examples 4-7: 160 μM KgpF, 2 mM DMAPP
Protocol: With regards to each of KgpF and OltF, heterogeneous co-expression of a gene synthesized after optimizing the codon of a gene derived from a producing strain was performed in Escherichia coli, followed by purification to obtain a prenylation enzyme.
The analysis was performed using UltrafleXtreme (Bruker Daltonics) or Autoflex II (Bruker Daltonics) and peptide calibration standard II (Bruker Daltonics).
In short, six kinds in total of peptides were obtained by translation and synthesis under (Conditions 1) of the artificial translation system developed by the present inventors. The peptides thus obtained were then reacted with 14.7 μM KgpF at 37° C. for 18 hours in the system shown in (Conditions 2). “DMAPP” used in (Conditions 2) is dimethylallyl pyrophosphoric acid.
(Conditions 1) • FIT system: v7s/v8.0.3 • 19aa-Met: 0.5 mM • ClAc-D or L-Trp-tRNA^fMetCUA: 90 μM • Reaction: 37° C., 60 min. • Scale: […] scale
(Conditions 2) • Translated mixture amount: 2.5 μL (mixture obtained under (Conditions 1)) • KgpF: 14.7 μM • DMAPP: 2 mM • Total amount: 15.7 μL • Reaction: 37° C., 18 hours
The YG280 sequences having the steric configuration of the N terminal Trp serving as an initiation residue of D-form and those of L-form were synthesized, so that two kinds of peptides were prepared in total. These two kinds of artificial cyclic peptides were obtained by translation and synthesis in the artificial translation system (Conditions 3) developed by the present inventors. The peptides thus obtained were then reacted with 53, 160, and 580 μM KgpF in a system shown in (Conditions 4) at 37° C. for 18 hours.
(Conditions 3) • FIT system: v7s/v8.0.3 • 19aa-Met: 0.5 mM • ClAc-D or L-Trp-tRNA^fMetCUA: 120 μM • Reaction: 37° C., 3 hours • Scale: 2.5 μL scale
(Conditions 4) • Translated mixture amount: 2.5 μL (mixture obtained under (Conditions 3)) • KgpF: 53, 160, 580 μM • DMAPP: 2 mM • Reaction: 37° C., 18 hours
(§4) The above three kinds of artificial cyclic peptides were obtained by translation and synthesis in the artificial translation system (Conditions 5) developed by the present inventors. The peptides thus obtained were then reacted with KgpF in the system shown below in (Conditions 6) at 37° C. for 18 hours.
(Conditions 5) • FIT system: v7s/v8.0.3 • 19aa-Met: 0.5 mM • ClAc-D or L-Trp-tRNA^fMetCUA: 90 μM • Reaction: 37° C., 60 min. • Scale: 2.5 μL scale
(Conditions 6) • Translated mixture amount: 2.5 μL (mixture obtained under (Conditions 5)) • KgpF: 160 or 580 μM • DMAPP: 2 mM • Reaction: 37° C., 18 hours
as §4, with “six” for “three”, “7)” for “5)”, “with 160 μM” for “with”, “shown” for “shown below”, “8)” for “6)”
(Conditions 7) • FIT system: v7s/v9.1 • 19aa-Met: 0.5 mM • ClAc-D-Tyr-tRNA^fMetCUA: 90 μM • Reaction: 37° C., 60 min. • Scale: 2.5 μL scale
(Conditions 8) • Translated mixture amount: 2.5 μL (mixture obtained under (Conditions 7)) • KgpF: 160 μM • DMAPP: 2 mM • Reaction: 37° C., 18 hours
as §4, with “9)” for “5)”, “with 160 μM” for “with”, “shown” for “shown below”, “10)” for “6)”
(Conditions 9) • FIT system: v7s/v9.1 • 19aa-Met: 0.5 mM • ClAc-D-Tyr-tRNA^fMetCUA: 90 μM • Reaction: 37° C., 60 min. • Scale: 2.5 μL scale
(Conditions 10) • Translated mixture amount: 2.5 μL (mixture obtained under (Conditions 9)) • KgpF: 160 μM • DMAPP: 2 mM • Reaction: 37° C., 18 hours
The above artificial cyclic peptides were obtained by translation and synthesis in the artificial translation system (Conditions 11) developed by the present inventors. […]

KgpF v 3.1 = assay: Prenylation of artificial cyclic peptides with 10 μM KgpF v 3.1 (Example 11; Table 7); type: biochemical, Microcystis aeruginosa; set-up: key: 5: strong intensity; 4: medium intensity; 3: weak intensity; 2: very weak intensity; 1: no peak; N/A: not observed; details: KgpF v 3.1 10 μM
Protocol: Reaction of the artificial cyclic peptide shown in Table 7 was made under conditions similar to (Conditions 11) and (Conditions 12) except that v8s/v11.1 was used as FIT system, KgpF v 3.1 was used as a prenylation modification enzyme, and the concentration of the KgpF v 3.1 was set at 10 μM. Here, KgpF v 3.1 is an enzyme having a higher purification degree and more improved specific activity than KgpF used under (Conditions 12).

Question: “AY015: cyclic peptide containing a Trp at N terminal position, SEQ ID NO: 372 (WSNFRIARYSNSSC; also: cyclic)” was tested. Which “prenylation modification with OltF (MALDI-TOF-MS)” value (shortened to “prenylation modification with OltF”) (OltF) did it give?
Answer: The value was “Trp at the N terminal position was prenylated”.

Question: With “AY016: cyclic peptide containing a Trp at N terminal position, SEQ ID NO: 373 (WHDYRIARYHTYPC; also: cyclic)” as the substance, how does the “prenylation modification with OltF” value (OltF) read?
Answer: The value was “Trp at the N terminal position was prenylated”.

Question: How did the “prenylation modification with OltF” value (OltF) turn out when “AY017: cyclic peptide containing a Trp at N terminal position, SEQ ID NO: 374 (WCDVSGRAGYFPC; also: cyclic)” was run?
Answer: Its value is “Trp at the N terminal position was prenylated”.

Question: “AY018: cyclic peptide containing a Trp at N terminal position, SEQ ID NO: 375 (WNNRERGSDDDAGGPC; also: cyclic)” was tested. Which “prenylation modification with OltF” value (OltF) did it give?
Answer: Its value is “Trp at the N terminal position was prenylated”.

Question: “AY019: cyclic peptide containing a Trp at N terminal position, SEQ ID NO: 376 (WSNVSGRAGYFPC; also: cyclic)” was tested. Which “prenylation modification with OltF” value (OltF) did it give?
Answer: Its value is “Trp at the N terminal position was prenylated”.

Question: Which “prenylation modification with OltF” value (OltF) does the source give for “AY020: cyclic peptide containing a Trp at N terminal position, SEQ ID NO: 377 (WSNRERGSDDDAGGPC; also: cyclic)” here?
Answer: The value was “Trp at the N terminal position was prenylated”.

Question: With “Clone-T2 (Ac-[dY]LVRERENTWKVTC; thioether (positions not given here); not fully specified (bridges))” as the substance, how does the “Peak intensity, The number of prenyl groups added 0” value [1] read?
Answer: The value was 1.

Question: What about the “Peak intensity, The number of prenyl groups added 1” value [1] of the same substance?
Answer: Its value is 5.

Question: And the “Peak intensity, The number of prenyl groups added 0” value (KgpF [2])?
Answer: Its value is 1.

Question: What about the “Peak intensity, The number of prenyl groups added 1” value (KgpF [2]) of the same substance?
Answer: The value was 4.

Question: Which “Peak intensity, The number of prenyl groups added 0” value [1] does the source give for “Clone-V3 (Ac-[dY]VWNVKIKPKTTKC; thioether (positions not given here); not fully specified (bridges))” here?
Answer: Its value is 1.

Question: What about the “Peak intensity, The number of prenyl groups added 1” value [1] of the same substance?
Answer: Its value is 5.

Question: What about the “Peak intensity, The number of prenyl groups added 0” value (KgpF [2]) of the same substance?
Answer: The value was 1.

Question: And the “Peak intensity, The number of prenyl groups added 1” value (KgpF [2])?
Answer: The value was 5.

Question: Which “inhibition of the enzymatic activity of MetAP1” value (MetAP1) does the source give for “Met2: cyclic peptide SEQ ID NO: 361 from MetAP1 screening, Fmoc solid-phase synthesis, prenylated with KgpF (YKRRHCLPPAWG; also: cyclic, ring not given here, prenylated with KgpF)” here?
Answer: The value was “inhibit the enzymatic activity of MetAP1”.

Question: “YG289-S2iD7: cyclic peptide obtained by translation and synthesis ({CH2CO}-[dY]HDYRIWRYHTYPC; thioether N-14 (inferred))” was tested. Which “prenylation modification with KgpF (MALDI-TOF-MS)” value (KgpF [3]) did it give?
Answer: The value was “modified with a prenyl group”.

Question: What about the “Peak intensity, The number of prenyl groups added 0” value (KgpF v 3.1) of the same substance?
Answer: The value was 1.

Question: And the “Peak intensity, The number of prenyl groups added 1” value (KgpF v 3.1)?
Answer: Its value is 5.

Question: What does the source list for “YG292-PaktiL5: cyclic peptide obtained by translation and synthesis ({CH2CO}-[dY]IRRPWVPIIYLGC; thioether N-14 (inferred))”?
Answer: prenylation modification with KgpF (MALDI-TOF-MS) (KgpF [3]): modified with a prenyl group; Peak intensity, The number of prenyl groups added 0 (KgpF v 3.1): 1; Peak intensity, The number of prenyl groups added 1 (KgpF v 3.1): 5

Question: Which results are given for “YG297-aMD4: cyclic peptide obtained by translation and synthesis ({CH2CO}-[dY]RQFNRRTHEVWNLDC; thioether N-16 (inferred))”?
Answer: prenylation modification with KgpF (MALDI-TOF-MS) (KgpF [3]): modified with a prenyl group; Peak intensity, The number of prenyl groups added 0 (KgpF v 3.1): 1; Peak intensity, The number of prenyl groups added 1 (KgpF v 3.1): 5
